Source: paper PMC3119665, “A New Drug Design Targeting the Adenosinergic System for Huntington's Disease” (PLoS ONE, 2011)

What was measured:
[1] = molecular target: T1, A2AR (Mus musculus, UniProt Q60613); experiment: cAMP level in the brain after intraperitoneal injection; format: in vivo; settings: single intraperitoneal injection 5 mg/kg body weight, 60 min, wildtype and A2AR knockout mice
T1 construct: Brain tissues were carefully removed, and homogenized in 1 ml of assay buffer; from tissue; host or cells: brain of C57BL6 mice (in vivo dosing)
Description: C57BL6 mice (8 weeks old) were intraperitoneally (i.p.) administrated with T1-11 (5 mg/kg body weight, n = 4) or vehicle for 60 min. Brain tissues were carefully removed, and homogenized in 1 ml of assay buffer (25 mM Tris (pH 8), 1 mM EGTA, 1 mM MgCl2, […], […], 10 nM okadaic acid, 1× EDTA free proteinase inhibitor cocktail (Roche), 0.5 mM IBMX, and […]). Trichloroacetic acid (6%, final concentration) was then added to the lysate to precipitate proteins. The cAMP level in the supernatant was analyzed as previously described.

[2] = system: Chemokine CXCR1/2 (IL-8, Non-Selective); experiment: Radioligand binding panel (Table S1); parameters: species or system human; settings: 10 μM T1-11, n 2
[3] = molecular target: T2, Prostanoid CRTH2 (Homo sapiens, UniProt Q9Y5Y4); experiment: Radioligand binding panel (Table S1); settings: 10 μM T1-11, n 2
T2 construct: purchased MDS Pharma Services Taiwan
T2 sequence (Q9Y5Y4 whole entry): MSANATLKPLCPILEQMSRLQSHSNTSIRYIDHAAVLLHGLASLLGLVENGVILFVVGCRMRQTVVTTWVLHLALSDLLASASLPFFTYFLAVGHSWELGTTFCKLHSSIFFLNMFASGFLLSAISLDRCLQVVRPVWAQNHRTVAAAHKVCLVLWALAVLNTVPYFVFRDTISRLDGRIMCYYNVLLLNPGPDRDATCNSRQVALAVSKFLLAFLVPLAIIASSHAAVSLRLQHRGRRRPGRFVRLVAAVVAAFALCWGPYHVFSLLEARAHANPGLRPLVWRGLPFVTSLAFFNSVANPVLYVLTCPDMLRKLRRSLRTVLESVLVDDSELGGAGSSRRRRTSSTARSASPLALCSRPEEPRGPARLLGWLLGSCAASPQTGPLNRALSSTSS

[4] = molecular target: T3, Dopamine D4.7 (Homo sapiens, UniProt P21917, INS283GLPPDPCGPDCAPPAPGLPQDPCGPDCAPPAPGLPRGPCGPDCAPPAP/S284G); experiment: Radioligand binding panel (Table S1); settings: 10 μM T1-11, n 2
T3 construct: purchased MDS Pharma Services Taiwan
T3 sequence (P21917 with tags, fused parts or gaps with the stated changes): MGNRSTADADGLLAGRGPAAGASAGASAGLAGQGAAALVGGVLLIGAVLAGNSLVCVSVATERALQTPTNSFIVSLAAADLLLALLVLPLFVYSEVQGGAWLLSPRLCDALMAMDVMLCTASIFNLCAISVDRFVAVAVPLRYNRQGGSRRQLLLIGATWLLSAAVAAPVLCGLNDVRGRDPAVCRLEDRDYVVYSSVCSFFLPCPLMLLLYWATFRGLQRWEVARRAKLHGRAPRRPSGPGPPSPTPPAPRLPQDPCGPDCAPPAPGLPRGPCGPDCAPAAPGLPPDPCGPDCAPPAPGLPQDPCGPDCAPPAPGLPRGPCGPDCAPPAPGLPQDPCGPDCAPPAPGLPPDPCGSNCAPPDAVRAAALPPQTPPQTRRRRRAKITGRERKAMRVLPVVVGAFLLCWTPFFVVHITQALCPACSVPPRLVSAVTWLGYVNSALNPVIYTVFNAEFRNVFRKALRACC

[5] = molecular target: T4, GABAB1A (Homo sapiens, UniProt Q9UBS5); experiment: Radioligand binding panel (Table S1); settings: 10 μM T1-11, n 2
T4 construct: purchased MDS Pharma Services Taiwan
T4 sequence (Q9UBS5 15-961 limits assumed): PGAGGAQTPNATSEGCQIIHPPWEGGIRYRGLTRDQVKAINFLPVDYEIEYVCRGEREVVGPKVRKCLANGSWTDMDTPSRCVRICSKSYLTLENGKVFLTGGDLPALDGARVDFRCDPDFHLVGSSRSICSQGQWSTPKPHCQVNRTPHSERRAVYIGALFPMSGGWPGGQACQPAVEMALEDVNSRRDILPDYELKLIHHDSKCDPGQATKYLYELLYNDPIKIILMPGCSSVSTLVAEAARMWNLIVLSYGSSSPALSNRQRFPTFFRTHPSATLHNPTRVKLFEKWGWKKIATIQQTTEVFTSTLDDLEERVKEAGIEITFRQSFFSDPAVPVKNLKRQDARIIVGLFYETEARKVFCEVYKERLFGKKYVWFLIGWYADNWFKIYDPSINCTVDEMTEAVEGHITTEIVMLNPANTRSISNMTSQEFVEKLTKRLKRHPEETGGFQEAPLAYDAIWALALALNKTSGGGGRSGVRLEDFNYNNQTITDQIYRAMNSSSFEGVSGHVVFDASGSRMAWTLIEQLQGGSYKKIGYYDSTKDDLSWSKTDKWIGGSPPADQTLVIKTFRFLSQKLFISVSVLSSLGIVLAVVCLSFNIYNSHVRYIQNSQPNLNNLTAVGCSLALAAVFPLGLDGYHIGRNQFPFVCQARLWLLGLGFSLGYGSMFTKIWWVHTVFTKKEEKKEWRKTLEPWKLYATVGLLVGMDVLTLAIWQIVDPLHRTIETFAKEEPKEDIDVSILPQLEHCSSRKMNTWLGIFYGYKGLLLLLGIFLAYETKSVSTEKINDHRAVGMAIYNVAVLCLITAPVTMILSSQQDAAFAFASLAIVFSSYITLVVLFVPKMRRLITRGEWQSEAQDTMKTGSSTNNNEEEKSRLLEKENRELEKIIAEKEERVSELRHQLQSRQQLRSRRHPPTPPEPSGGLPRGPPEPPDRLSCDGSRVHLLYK
T4 sequence (O75899 42-941 partner): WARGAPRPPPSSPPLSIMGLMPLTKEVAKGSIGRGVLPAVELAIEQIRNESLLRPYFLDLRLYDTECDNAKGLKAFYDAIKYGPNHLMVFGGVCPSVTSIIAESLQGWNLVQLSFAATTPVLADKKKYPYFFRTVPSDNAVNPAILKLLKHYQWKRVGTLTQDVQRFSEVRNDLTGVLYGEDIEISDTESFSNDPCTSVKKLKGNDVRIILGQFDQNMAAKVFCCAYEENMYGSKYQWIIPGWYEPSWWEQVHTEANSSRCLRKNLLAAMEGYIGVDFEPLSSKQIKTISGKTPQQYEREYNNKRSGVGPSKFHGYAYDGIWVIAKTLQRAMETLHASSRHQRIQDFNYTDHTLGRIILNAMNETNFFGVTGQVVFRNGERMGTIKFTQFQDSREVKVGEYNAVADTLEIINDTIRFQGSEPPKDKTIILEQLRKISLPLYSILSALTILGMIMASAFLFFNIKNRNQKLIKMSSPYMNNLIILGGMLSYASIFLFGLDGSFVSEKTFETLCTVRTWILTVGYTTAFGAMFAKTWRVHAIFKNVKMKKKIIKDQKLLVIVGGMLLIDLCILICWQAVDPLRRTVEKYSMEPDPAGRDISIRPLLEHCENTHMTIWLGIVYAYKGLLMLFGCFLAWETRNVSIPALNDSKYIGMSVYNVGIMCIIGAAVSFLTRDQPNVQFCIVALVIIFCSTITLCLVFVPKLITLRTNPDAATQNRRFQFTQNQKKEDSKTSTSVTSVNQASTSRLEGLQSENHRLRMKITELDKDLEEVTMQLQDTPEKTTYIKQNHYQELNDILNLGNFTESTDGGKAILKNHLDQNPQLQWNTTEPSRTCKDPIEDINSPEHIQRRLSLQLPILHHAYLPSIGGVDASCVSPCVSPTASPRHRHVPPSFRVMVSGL

[6] = molecular target: T5, Galanin GAL2 (Homo sapiens, UniProt O43603); experiment: Radioligand binding panel (Table S1); settings: 10 μM T1-11, n 2
T5 construct: purchased MDS Pharma Services Taiwan
T5 sequence (O43603 whole entry): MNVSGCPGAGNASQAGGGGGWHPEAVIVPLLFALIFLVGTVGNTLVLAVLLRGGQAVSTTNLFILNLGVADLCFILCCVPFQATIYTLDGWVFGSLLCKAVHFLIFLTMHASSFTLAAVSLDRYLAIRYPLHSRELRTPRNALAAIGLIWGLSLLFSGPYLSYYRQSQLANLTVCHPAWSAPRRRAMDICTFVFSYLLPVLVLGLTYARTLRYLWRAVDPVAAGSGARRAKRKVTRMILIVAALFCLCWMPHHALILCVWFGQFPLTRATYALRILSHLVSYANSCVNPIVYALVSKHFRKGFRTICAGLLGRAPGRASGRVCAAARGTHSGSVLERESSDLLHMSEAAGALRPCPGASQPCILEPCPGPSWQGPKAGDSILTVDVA

[7] = molecular target: T6, Galanin GAL1 (Homo sapiens, UniProt P47211); experiment: Radioligand binding panel (Table S1); settings: 10 μM T1-11, n 2
T6 construct: purchased MDS Pharma Services Taiwan
T6 sequence (P47211 whole entry): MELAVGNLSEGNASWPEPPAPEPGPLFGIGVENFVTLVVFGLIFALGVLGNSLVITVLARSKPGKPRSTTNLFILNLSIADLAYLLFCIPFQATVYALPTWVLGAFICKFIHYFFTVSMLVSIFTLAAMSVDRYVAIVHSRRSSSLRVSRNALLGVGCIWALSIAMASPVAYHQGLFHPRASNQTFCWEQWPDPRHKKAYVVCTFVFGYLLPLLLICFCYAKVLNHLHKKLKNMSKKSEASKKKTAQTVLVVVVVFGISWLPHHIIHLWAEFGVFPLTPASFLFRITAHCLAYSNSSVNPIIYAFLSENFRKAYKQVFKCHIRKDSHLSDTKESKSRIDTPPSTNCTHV

[8] = molecular target: T7, Phosphodiesterase PDE5 (Homo sapiens, UniProt O76074); experiment: Radioligand binding panel (Table S1); settings: 10 μM T1-11, n 2
T7 construct: purchased MDS Pharma Services Taiwan

[9] = system: PC12 cells; experiment: MTT metabolism assay, serum-deprived PC12 cells; format: cell-based, rat; settings: 24 h
Description: Survival was assessed by the 3-(4,5-dimethylthiazol-2-yl)-2,5-diphenyltetrazolium bromide (MTT) metabolism assay as described elsewhere, [65]. In brief, cells grown on 150-mm plates were washed three times with PBS and resuspended in DMEM. Suspended cells (1×10^4 cells) were plated on 96-well plates and treated with or without the indicated reagent. After incubation for 24 h, MTT (0.5 mg/ml) was added to the medium and incubated for 3 h. After discarding the medium, DMSO (100 µl) was then applied to the well to dissolve the formazan crystals derived from the mitochondrial cleavage of the tetrazolium ring by live cells. The absorbance at 570/630 nm in each well was measured on a micro-enzyme-linked immunosorbent assay reader.

[10] = molecular target: T8, Prostanoid DP (Homo sapiens, UniProt Q13258); experiment: Radioligand binding panel (Table S1); settings: 10 μM T1-11, n 2
T8 construct: purchased MDS Pharma Services Taiwan
T8 sequence (Q13258 whole entry): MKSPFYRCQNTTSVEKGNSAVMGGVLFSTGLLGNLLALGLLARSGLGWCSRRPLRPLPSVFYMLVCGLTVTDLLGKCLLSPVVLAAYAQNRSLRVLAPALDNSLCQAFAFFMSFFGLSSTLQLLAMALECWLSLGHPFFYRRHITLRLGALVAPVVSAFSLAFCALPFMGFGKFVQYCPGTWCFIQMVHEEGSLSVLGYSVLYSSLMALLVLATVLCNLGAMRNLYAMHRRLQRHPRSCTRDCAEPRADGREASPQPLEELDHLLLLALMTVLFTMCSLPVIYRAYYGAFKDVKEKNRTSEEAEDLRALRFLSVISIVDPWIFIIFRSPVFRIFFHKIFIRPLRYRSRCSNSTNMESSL

[11] = molecular target: T9, Calcitonin Gene-Related, Peptide CGRP1 (Homo sapiens, UniProt O60894+Q16602); experiment: Radioligand binding panel (Table S1); settings: 10 μM T1-11, n 2
T9 construct: purchased MDS Pharma Services Taiwan

[12] = molecular target: T10, Interleukin IL-1 (Mus musculus, UniProt P13504); experiment: Radioligand binding panel (Table S1); settings: 10 μM T1-11, n 2
T10 construct: purchased MDS Pharma Services Taiwan

[13] = system: PC12 cells; experiment: Annexin V-FITC staining, serum-deprived PC12 cells; format: cell-based, rat; settings: T1-11 10 µM, 24 h
Description: An annexin V (FITC-conjugated) apoptosis kit (K101-400; BioVision, Mountain View, CA, USA) was used to analyze apoptotic cells. The experimental protocol followed the manufacturer's instructions and a previous article. In brief, after treatment with serum, serum-free medium, or serum-free medium plus T1-11 of the indicated concentration for 24 h, cells growing on 12-well plates at (3∼4)×10^5 cells/well were loaded with 0.5 ml binding buffer and 5 µl annexin V-FITC. After incubation for 5 min in the dark, cells were washed once with 1 ml of culture medium (without phenol red) for fluorescent imaging analyses (Axiovert-200M, Carl Zeiss, Gôttingen, Germany) or a flow cytometric analysis (Beckton Dickinson, Franklin Lakes, NJ, USA). Median values of the FITC fluorescent intensities were determined using an FL-1 channel (488/530Ex/Em nm). Five thousand live cells were analyzed per sample.

[14] = system: GABAA, Agonist Site; experiment: Radioligand binding panel (Table S1); parameters: species or system rat; settings: 10 μM T1-11, n 2
[15] = molecular target: T11, Transporter, Serotonin (5-Hydroxytryptamine) (SERT) (Homo sapiens, UniProt P31645); experiment: Radioligand binding panel (Table S1); settings: 10 μM T1-11, n 2
T11 construct: purchased MDS Pharma Services Taiwan

[16] = molecular target: T12, Leukotriene, BLT (LTB4) (Homo sapiens, UniProt Q15722); experiment: Radioligand binding panel (Table S1); settings: 10 μM T1-11, n 2
T12 construct: purchased MDS Pharma Services Taiwan
T12 sequence (Q15722 whole entry): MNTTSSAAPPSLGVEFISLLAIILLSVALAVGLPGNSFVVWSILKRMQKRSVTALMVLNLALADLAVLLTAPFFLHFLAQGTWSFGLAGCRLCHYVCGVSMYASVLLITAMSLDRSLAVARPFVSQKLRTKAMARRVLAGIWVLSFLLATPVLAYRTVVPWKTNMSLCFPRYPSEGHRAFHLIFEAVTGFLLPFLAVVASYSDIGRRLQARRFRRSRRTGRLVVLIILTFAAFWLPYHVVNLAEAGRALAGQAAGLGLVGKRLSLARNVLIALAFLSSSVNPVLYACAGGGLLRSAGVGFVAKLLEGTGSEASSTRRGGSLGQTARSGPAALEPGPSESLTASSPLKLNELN

[17] = system: Glutamate, NMDA, Phencyclidine; experiment: Radioligand binding panel (Table S1); parameters: species or system rat; settings: 10 μM T1-11, n 2
[18] = molecular target: T13, Vasoactive Intestinal Peptide VIP1 (Homo sapiens, UniProt P32241); experiment: Radioligand binding panel (Table S1); settings: 10 μM T1-11, n 2
T13 construct: purchased MDS Pharma Services Taiwan

[19] = molecular target: T14, Adrenergic α 2B (Homo sapiens, UniProt P18089); experiment: Radioligand binding panel (Table S1); settings: 10 μM T1-11, n 2
T14 construct: purchased MDS Pharma Services Taiwan

[20] = molecular target: T15, Muscarinic M4 (Homo sapiens, UniProt P08173); experiment: Radioligand binding panel (Table S1); settings: 10 μM T1-11, n 2
T15 construct: purchased MDS Pharma Services Taiwan
T15 sequence (P08173 whole entry): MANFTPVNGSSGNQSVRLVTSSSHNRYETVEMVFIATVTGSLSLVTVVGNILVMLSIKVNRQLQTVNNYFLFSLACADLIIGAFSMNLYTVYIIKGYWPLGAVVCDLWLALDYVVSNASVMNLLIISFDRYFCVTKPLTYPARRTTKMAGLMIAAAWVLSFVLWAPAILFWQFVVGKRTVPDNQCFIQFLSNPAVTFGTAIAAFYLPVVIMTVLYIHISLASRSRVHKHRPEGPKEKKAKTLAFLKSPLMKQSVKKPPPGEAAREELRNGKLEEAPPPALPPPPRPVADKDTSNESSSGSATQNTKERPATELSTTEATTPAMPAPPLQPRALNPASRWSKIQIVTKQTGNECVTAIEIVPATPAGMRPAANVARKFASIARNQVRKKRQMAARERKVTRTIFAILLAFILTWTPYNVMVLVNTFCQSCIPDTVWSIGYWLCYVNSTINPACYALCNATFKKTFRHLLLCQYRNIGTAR

[21] = molecular target: T16, Leptin (Mus musculus, UniProt P48356); experiment: Radioligand binding panel (Table S1); settings: 10 μM T1-11, n 2
T16 construct: purchased MDS Pharma Services Taiwan

[22] = system: Serotonin (5-Hydroxytryptamine) 5-HT1, Non-Selective; experiment: Radioligand binding panel (Table S1); parameters: species or system rat; settings: 10 μM T1-11, n 2
[23] = system: Atrial Natriuretic Factor (ANF); experiment: Radioligand binding panel (Table S1); parameters: species or system guinea pig; settings: 10 μM T1-11, n 2
[24] = system: Glutamate, NMDA, Polyamine; experiment: Radioligand binding panel (Table S1); parameters: species or system rat; settings: 10 μM T1-11, n 2

SMILES: OC[C@H]1O[C@@H](n2cnc3c(NCc4ccc(O)cc4)ncnc32)[C@H](O)[C@@H]1O [T1-11, N ^6-(4-hydroxybenzyl)adenine riboside]
- cAMP levels in the brain [1]: increased cAMP levels in the brains of wildtype, but not A2AR knockout
- % Inhibition [2]: 10%
- inhibition at 10 µM [3]: 0%
- inhibition at 10 µM [4]: 3%
- inhibition at 10 µM [5]: -1%
- inhibition at 10 µM [6]: 0%
- inhibition at 10 µM [7]: 0%
- inhibition at 10 µM [8]: 4%
- Protection against serum withdrawal-induced cell death (MTT) [9]: protected against serum withdrawal-induced cell death in a dose-dependent manner
- inhibition at 10 µM [10]: 17%
- inhibition at 10 µM [11]: 6%
- inhibition at 10 µM [12]: 4%
- Apoptosis (annexin V-FITC) [13]: rescued serum-deprived PC12 cells from apoptosis
- % Inhibition [14]: 4%
- inhibition at 10 µM [15]: 5%
- inhibition at 10 µM [16]: -6%
- % Inhibition [17]: -2%
- inhibition at 10 µM [18]: 2%
- inhibition at 10 µM [19]: 2%
- inhibition at 10 µM [20]: 9%
- inhibition at 10 µM [21]: 6%
- % Inhibition [22]: 10%
- % Inhibition [23]: 5%
- % Inhibition [24]: 10%
